Laboratory results from paper PMC1891437, “Hexose-6-phosphate Dehydrogenase Modulates 11β-Hydroxysteroid Dehydrogenase Type 1-Dependent Metabolism of 7-keto- and 7β-hydroxy-neurosteroids” (PLoS ONE, 2007).

Tests used:
[1] = molecular target: T1, 11β-HSD1 (Homo sapiens, UniProt P28845); test: 11β-HSD1 reductase activity (reduction of cortisone) in lysates of HEK-293 cells expressing recombinant enzyme, competition by 7-oxygenated neurosteroids; assay type: biochemical; conditions: HEK-293 lysates; 200 nM [3H]-cortisone, 500 µM NADPH; mean±S.D., four experiments
T1 construct: expressed in transfected cells; host or cells: HEK-293 (transient, Ca2+-phosphate precipitation)
Protocol: (§1) HEK-293 cells were cultured in Dulbecco's Modified Eagle's Medium (DMEM) supplemented with 10% fetal calf serum (FCS), 50 units/ml penicillin, 50 µg/ml streptomycin and 2 mM glutamine. Cells were transfected with expression plasmids for FLAG-tagged 11β-HSD1 and myc-tagged H6PDH or pcDNA3.1 control using the Ca^2+-phosphate precipitation method. The epitope tags had no effect on enzymatic activities or expression levels of 11β-HSD1 and H6PDH [10], [49]. A total amount of 8 µg DNA was used per 10 cm culture dish or 2 µg DNA per well of a six-well culture plate.
(§2) The enzyme activity in intact cells was measured as described. Briefly, HEK-293 cells, grown in 10 cm culture dishes and transfected with FLAG-tagged 11β-HSD1 alone or co-transfected with myc-tagged H6PDH, were detached 24 h post-transfection and distributed in 96-well plates at a density of 30′000–40′000 cells per well. After 16 h, cells were incubated in serum- and steroid-free medium and the conversion of radiolabeled cortisone to cortisol (or the reverse activity) was determined upon incubation for 1 h at 37°C in a total volume of 50 µl containing 200 nM cortisone (or cortisol). The reaction was stopped by adding methanol containing 2 mM unlabeled cortisone and cortisol, followed by separation of steroids by TLC and scintillation counting. Measurements with freshly prepared cell lysates were carried out in the presence of [1,2,6,7-^3H]-cortisone and cofactor NADPH at final concentrations of 200 nM and 500 µM for the reductase reaction and with 50 nM [1,2,6,7-^3H]-cortisol and 500 µM cofactor NAD^+ for the dehydrogenase reaction, respectively, in the absence or presence of various concentrations of competing 7-oxygenated neurosteroid ligands. The concentration of dimethylsulfoxide or methanol from the solvent was 0.1% in all reactions and had no effect on enzyme activity. Data (mean±SD) were obtained from four independent experiments and were calculated using the Data Analysis Toolbox (Elsevier MDL, Allschwil, Switzerland).

[2] = molecular target: T1, 11β-HSD1; test: 11β-HSD1 dehydrogenase activity (oxidation of cortisol) in lysates of HEK-293 cells expressing recombinant enzyme, competition by 7-oxygenated neurosteroids; assay type: biochemical; conditions: HEK-293 lysates; 50 nM [3H]-cortisol, 500 µM cofactor NAD+; mean±S.D., four experiments
Protocol: as §1, §2

[3] = molecular target: T1, 11β-HSD1; test: 7-keto-steroid reductase and 7-hydroxy-steroid dehydrogenase activity in intact transfected HEK-293 cells (GC-MS); assay type: cell-based; conditions: 1 µM inhibitor, intact HEK-293 cells
Protocol: as §1
HEK-293 cells were seeded in six-well plates at a density of 900′000 cells per well. After 24 h, cells were transfected with expression vector for 11β-HSD1 or co-transfected with vectors for 11β-HSD1 and H6PDH. An empty pcDNA3.1 plasmid was used in transfections lacking H6PDH to adjust total DNA amounts in all samples. The medium was replaced 18 h post-transfection by steroid-free medium followed by addition of 1 µM of the steroid substrate to be tested. […] After incubation for various time intervals, reactions were terminated by addition of an equal volume of dichloromethane, containing 500 ng medroxyprogesterone as an internal standard. Since radiolabeled C7-oxygenated metabolites were not commercially available, we applied GC-MS for detection. […]

[4] = molecular target: T1, 11β-HSD1; test: Steady state ratio of cortisone to cortisol in intact HEK-293 cells expressing 11β-HSD1; assay type: cell-based; conditions: 16 h, 20 µM inhibitor
Protocol: as §1, §2

[5] = molecular target: T2, 11β-HSD1/H6PDH (Homo sapiens, UniProt P28845); test: Steady state ratio of cortisone to cortisol in intact HEK-293 cells coexpressing 11β-HSD1 and H6PDH; assay type: cell-based; conditions: 11β-HSD1/H6PDH cells, 16 h, 20 µM inhibitor, n = 4
T2 construct: expressed in transfected cells; host or cells: HEK-293 (transient co-transfection, Ca2+-phosphate precipitation)
Protocol: as §1
as §2, with “After 16 h, cells were incubated in serum- and steroid-free medium and the conversion of radiolabeled cortisone to cortisol (or the reverse activity) was determined upon incubation for 1 h at 37°C in a total volume of 50 µl containing 200 nM cortisone (or cortisol).” left out

[6] = 11β-HSD1 cells, 200 nM radiolabeled cortisone, n = 4

T2 sequence (P28845 whole entry): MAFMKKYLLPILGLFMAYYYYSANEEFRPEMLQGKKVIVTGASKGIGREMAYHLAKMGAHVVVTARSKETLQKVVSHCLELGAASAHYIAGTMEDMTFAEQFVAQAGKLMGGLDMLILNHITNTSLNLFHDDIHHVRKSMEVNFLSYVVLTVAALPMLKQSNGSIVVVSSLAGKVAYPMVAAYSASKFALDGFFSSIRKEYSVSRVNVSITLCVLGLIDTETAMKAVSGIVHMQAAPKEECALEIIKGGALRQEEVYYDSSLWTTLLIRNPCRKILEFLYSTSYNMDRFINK
T1 sequence (P28845 whole entry): as above

SMILES	IC50 [1] [µM]	IC50 [2] [µM]	other results
C[C@]12CC[C@H](O)CC1=CC(=O)[C@@H]1[C@@H]2CC[C@]2(C)C(=O)CC[C@@H]12 [7-ketodehydroepiandrosterone]	0.82 ± 0.07	29 ± 5	–
C[C@]12CC[C@H](O)C[C@@H]1CC(=O)[C@@H]1[C@@H]2CC[C@]2(C)C(=O)CC[C@@H]12 [5α-androstane-3β-ol-7,17dione, 5α-androstane-3β-ol-7,17-dione]	0.5 ± 0.11	18 ± 1	–
C[C@]12CC[C@H](O)CC1=C[C@@H](O)[C@@H]1[C@@H]2CC[C@]2(C)C(=O)CC[C@@H]12 [7α-hydroxydehydroepiandrosterone]	45 ± 2	16 ± 1	–
CC(=O)[C@H]1CC[C@H]2[C@@H]3C(=O)C=C4C[C@@H](O)CC[C@]4(C)[C@H]3CC[C@]12C [7-ketopregnenolone]	0.68 ± 0.11	5.4 ± 0.5	–
C1CCc2nnc(C34CC5CC(CC(C5)C3)C4)n2CC1 [T0504, 5H-1,2,4-triazolo(4,3-a)azepine,6,7,8,9-tetrahydro-3-tricyclo(3·3·1·13·7)dec-1-yl]	–	–	effect of inhibitor on 11β-HSD1-dependent metabolism of 7α-hydroxy-DHEA ([3]; 1 µM 7α-hydroxy-DHEA substrate, 3 h): prevented the formation of 7β-hydroxy-DHEA and 7-keto-DHEA; effect of inhibitor on 11β-HSD1-dependent metabolism of 7-ketopregnenolone and 5α-androstane-3β-ol-7,17-dione ([3]; 1 µM substrate, 3 h or 6 h): almost completely abolished
CC(=O)[C@H]1CC[C@H]2[C@@H]3[C@@H](O)C=C4C[C@@H](O)CC[C@]4(C)[C@H]3CC[C@]12C [7β-hydroxypregnenolone]	2.4 ± 0.5	1.34 ± 0.49	–
C[C@]12CC[C@H](O)CC1=C[C@H](O)[C@@H]1[C@@H]2CC[C@]2(C)C(=O)CC[C@@H]12 [7β-hydroxydehydroepiandrosterone]	7.7 ± 0.8	0.54 ± 0.05	–
O=C1CC(c2ccccc2)Oc2ccccc21 (stereo not shown) [Flavanone, flavanone]	–	–	cortisol, percentage of total glucocorticoid (oxidation of cortisol to cortisone) ([4]; 11β-HSD1 cells, 200 nM radiolabeled cortisol, n = 4): 61.2%; cortisol, percentage of total glucocorticoid (reduction of cortisone to cortisol) [4, 6]: 74.1%; cortisone, percentage of total glucocorticoid (reduction of cortisone to cortisol) [4, 6]: 25.9%; effect of inhibitor on the steady state ratio of glucocorticoids ([4]; HEK-293 cells with 11β-HSD1 alone or with H6PDH): little or no effect on the steady state ratio of glucocorticoids; cortisol, percentage of total glucocorticoid (oxidation of cortisol to cortisone) ([5]; 200 nM radiolabeled cortisol): 90.9%; cortisone, percentage of total glucocorticoid (oxidation of cortisol to cortisone) ([5]; 200 nM radiolabeled cortisol): 9.1%; cortisol, percentage of total glucocorticoid (reduction of cortisone to cortisol) ([5]; 200 nM radiolabeled cortisone): 91.7%; cortisone, percentage of total glucocorticoid (reduction of cortisone to cortisol) ([5]; 200 nM radiolabeled cortisone): 8.3%
